Assay results: patent US10285972B2, “Trans-2-nonadecyl-4-hydroxymethyl-1,3-dioxolane and producing methodthereof” (Greenyn Biotechnology Co., Ltd, priority 2014, dated 2019)

Key:
[1] = Body weight and food intake of mice fed 45% high-fat diet for 8 weeks; assay type: in vivo, C57BL/6 mice; details: for Final wight: mean±SE
Procedure: (§1) The 4 weeks-old male C57BL/6 mice were divided into 5 groups and treated with different feeding conditions, wherein the group 1 was the blank control fed with normal diet and water, the group 2 was fed with 45% high-fat diet and water, the group 3 was fed with 45% high-fat diet, water and 10 mg/Kg the compound TNHD, the group 4 was fed with 45% high-fat diet, water and 20 mg/Kg the compound TNHD, and the group 5 was fed with 45% high-fat diet, water and 200 mg/Kg Silymarin. Feeding for 8 weeks, and then all the mice were sacrificed.
At the end of the experiment, taking photographs of the each group were shown as FIG. 4.
The body weight and food intake in the each group were recorded in the table 1, wherein the data is expressed as the mean±SE.

liver = assay: Organ weights, liver appearance and liver staining (H&E, Surius red) of mice fed 45% high-fat diet; assay type: in vivo, C57BL/6 mice; details: for Liver weight: 8 weeks
Procedure: as §1
The weights of liver, kidney and spleen of the mice in the each group were measured and recorded in table 2. The macroscopic appearance of the liver from the mice of the each group was shown as FIG. 6. Furthermore, the liver collected from the sacrificed mice in each groups was fixed with formalin. After the fixation, the liver tissue of the each group was paraffin-embedded for histology section and stained by H&E and Surius red for analysis.

[2] = test system: fatty liver and obesity animal model prepared by ethanol-containing diet (Lieber-DeCarli); assay: Fatty liver and obesity animal model prepared by ethanol-containing diet (Lieber-DeCarli); assay type: in vivo; details: FIGS. 9 to 14

For `CCCCCCCCCCCCCCCCCCC[C@@H]1OC[C@@H](CO)O1` (relative stereo) [TNHD, trans-2-nonadecyl-4-hydroxymethyl-1,3-dioxolane], the “Effect on body weight, high dose compared with low dose” value ([1]; 45% high-fat diet mice, 20 mg/Kg vs 10 mg/Kg) was “high dose is more effective”, the “Effect on body weight increase of obesity mouse” value ([1]; 45% high-fat diet mice, 10 or 20 mg/Kg, 8 weeks) was “prevent and inhibit the body weight of obesity mouse to increase” and the “Effect on weight loss compared with Silymarin” value ([1]; 45% high-fat diet mice, Silymarin 200 mg/Kg) was “more effective to weight loss than Silymarin”. The Final wight ([1]; group 3: 45% high-fat diet + 10 mg/Kg TNHD, 8 weeks) was 29.8 ± 2.0 g, the Final wight ([1]; group 4: 45% high-fat diet + 20 mg/Kg TNHD, 8 weeks) was 28.1 ± 1.6 g and the “Lipid accumulation in the liver (H&E and Surius red staining)” value (liver; 45% high-fat diet mice, FIGS. 7 and 8) was “inhibit the lipid accumulation in the liver effectively”. For the same compound, the Liver weight (liver; group 3: 45% high-fat diet + 10 mg/Kg TNHD) was 5.23 ± 0.84 g, the “Macroscopic appearance of the liver” value (liver; group 3 or group 4 (10 or 20 mg/Kg), 45% high-fat diet, FIG. 6) was “the liver shows the red color and has smooth surface” and the Liver weight (liver; group 4: 45% high-fat diet + 20 mg/Kg TNHD) was 5.63 ± 0.61 g. The “Effect on obesity, fatty liver or liver damage caused by alcohol” value [2] was “effective to treat or/and prevent obesity, fatty liver or liver damage caused by alcohol”.
